Measured values from the kinase profiling compilation of Christmann-Franck et al. (2016).

Columns and labels:
MAPK10 (human) = MAPK10 (human) (UniProt P53779); assay: SelectScreen, TR FRET
PTK2B (human) = PTK2B (human) (UniProt Q14289); assay: SelectScreen, TR FRET
ROCK2 (human) = ROCK2 (human) (UniProt O75116); assay: SelectScreen, TR FRET
PRKCB1 (human) = PRKCB1 (human) (UniProt P05771); assay: SelectScreen, TR FRET
STK16 (human) = STK16 (human) (UniProt O75716); assay: SelectScreen, TR FRET
IRAK4 (human) = IRAK4 (human) (UniProt Q9NWZ3); assay: SelectScreen, TR FRET
MAP3K7 TAB1 (human) = MAP3K7 TAB1 (human) (UniProt Q15750+O43318); assay: SelectScreen, TR FRET
PIK3CA PIK3R1 (human) = PIK3CA PIK3R1 (human) (UniProt P27986+P42336); assay: SelectScreen, TR FRET
PLK3 (human) = PLK3 (human) (UniProt Q9H4B4); assay: SelectScreen, TR FRET
PDGFRA (human) = PDGFRA (human) (UniProt P16234); assay: SelectScreen, TR FRET
FLT3 (human) = FLT3 (human) (UniProt P36888); assay: SelectScreen, TR FRET
GSK3B (human) = GSK3B (human) (UniProt P49841); assay: SelectScreen, TR FRET
RAF1 (human) = RAF1 (human) (UniProt P04049); assay: SelectScreen, TR FRET
MAPK1 (human) = MAPK1 (human) (UniProt P28482); assay: SelectScreen, TR FRET
AKT1 (human) = AKT1 (human) (UniProt P31749); assay: SelectScreen, TR FRET
LCK (human) = LCK (human) (UniProt P06239); assay: SelectScreen, TR FRET
JAK1 JH1 JH2 (human) = JAK1 JH1 JH2 (human) (UniProt P23458); assay: SelectScreen, TR FRET
CDK2 CCNA2 (human) = CDK2 CCNA2 (human) (UniProt P24941+P20248); assay: SelectScreen, TR FRET
TTK (human) = TTK (human) (UniProt P33981); assay: SelectScreen, TR FRET
[1] = target: LRRK2 (human), Q5S007 [G2019S]; assay: HTRF; settings: ATP 100 µM
LRRK2 (human) [2] = target: LRRK2 (human) (UniProt Q5S007); assay: HTRF; settings: ATP 100 µM
PLK1 (human) = PLK1 (human) (UniProt P53350); assay: SelectScreen, TR FRET
STK3 (human) = STK3 (human) (UniProt Q13188); assay: SelectScreen, TR FRET
ABL1 (human) = ABL1 (human) (UniProt P00519); assay: SelectScreen, TR FRET; settings: compound 10.0 µM
CHEK1 (human) = CHEK1 (human) (UniProt O14757); assay: SelectScreen, TR FRET; settings: compound 10.0 µM
PLK2 (human) = PLK2 (human) (UniProt Q9NYY3); assay: SelectScreen, TR FRET; settings: compound 10.0 µM
DYRK1B (human) = DYRK1B (human) (UniProt Q9Y463); assay: SelectScreen, TR FRET; settings: compound 10.0 µM
MARK2 (human) = MARK2 (human) (UniProt Q7KZI7); assay: SelectScreen, TR FRET; settings: compound 10.0 µM
CLK1 (human) = CLK1 (human) (UniProt P49759); assay: SelectScreen, TR FRET; settings: compound 10.0 µM
ERBB4 (human) = ERBB4 (human) (UniProt Q15303); assay: SelectScreen, TR FRET
SYK (human) = SYK (human) (UniProt P43405); assay: SelectScreen, TR FRET; settings: compound 10.0 µM
PRKACA (human) = PRKACA (human) (UniProt P17612); assay: SelectScreen, TR FRET; settings: compound 10.0 µM
CAMK2A (human) = CAMK2A (human) (UniProt Q9UQM7); assay: SelectScreen, TR FRET
INSR (human) = INSR (human) (UniProt P06213); assay: SelectScreen, TR FRET
CDK1 CCNB1 (human) = CDK1 CCNB1 (human) (UniProt P06493+P14635); assay: SelectScreen, TR FRET; settings: compound 10.0 µM
CSF1R (human) = CSF1R (human) (UniProt P07333); assay: SelectScreen, TR FRET; settings: compound 10.0 µM
LRRK2 (human) [3] = target: LRRK2 (human) (UniProt Q5S007); assay: SelectScreen, TR FRET; settings: compound 10.0 µM
AURKA (human) = AURKA (human) (UniProt O14965); assay: SelectScreen, TR FRET; settings: compound 10.0 µM
CDK5 CDK5R1 p25 (human) = CDK5 CDK5R1 p25 (human) (UniProt Q15078+Q00535); assay: SelectScreen, TR FRET
RET (human) = RET (human) (UniProt P07949); assay: SelectScreen, TR FRET; settings: compound 10.0 µM
PAK4 (human) = PAK4 (human) (UniProt O96013); assay: SelectScreen, TR FRET; settings: compound 10.0 µM
RIPK2 (human) = RIPK2 (human) (UniProt O43353); assay: SelectScreen, TR FRET; settings: compound 10.0 µM

Sequence of RAF1 (human) (P04049 whole entry, looked up): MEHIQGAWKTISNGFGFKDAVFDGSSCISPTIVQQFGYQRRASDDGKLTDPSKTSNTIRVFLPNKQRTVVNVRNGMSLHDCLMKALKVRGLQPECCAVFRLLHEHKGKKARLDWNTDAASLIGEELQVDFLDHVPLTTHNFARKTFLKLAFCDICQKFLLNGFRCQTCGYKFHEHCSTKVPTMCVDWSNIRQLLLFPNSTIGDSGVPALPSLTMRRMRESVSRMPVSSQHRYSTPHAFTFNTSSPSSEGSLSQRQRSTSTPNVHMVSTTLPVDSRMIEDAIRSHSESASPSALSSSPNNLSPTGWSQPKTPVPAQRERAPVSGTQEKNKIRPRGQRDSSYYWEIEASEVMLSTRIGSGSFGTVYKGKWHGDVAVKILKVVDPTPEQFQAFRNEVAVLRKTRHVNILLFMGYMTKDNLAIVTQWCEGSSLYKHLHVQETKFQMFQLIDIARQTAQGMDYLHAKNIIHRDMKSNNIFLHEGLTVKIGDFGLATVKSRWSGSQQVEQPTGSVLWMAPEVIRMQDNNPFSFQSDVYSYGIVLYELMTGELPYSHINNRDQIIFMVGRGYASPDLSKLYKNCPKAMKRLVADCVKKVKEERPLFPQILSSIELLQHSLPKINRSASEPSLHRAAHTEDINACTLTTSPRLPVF
Sequence of AKT1 (human) (P31749 whole entry, looked up): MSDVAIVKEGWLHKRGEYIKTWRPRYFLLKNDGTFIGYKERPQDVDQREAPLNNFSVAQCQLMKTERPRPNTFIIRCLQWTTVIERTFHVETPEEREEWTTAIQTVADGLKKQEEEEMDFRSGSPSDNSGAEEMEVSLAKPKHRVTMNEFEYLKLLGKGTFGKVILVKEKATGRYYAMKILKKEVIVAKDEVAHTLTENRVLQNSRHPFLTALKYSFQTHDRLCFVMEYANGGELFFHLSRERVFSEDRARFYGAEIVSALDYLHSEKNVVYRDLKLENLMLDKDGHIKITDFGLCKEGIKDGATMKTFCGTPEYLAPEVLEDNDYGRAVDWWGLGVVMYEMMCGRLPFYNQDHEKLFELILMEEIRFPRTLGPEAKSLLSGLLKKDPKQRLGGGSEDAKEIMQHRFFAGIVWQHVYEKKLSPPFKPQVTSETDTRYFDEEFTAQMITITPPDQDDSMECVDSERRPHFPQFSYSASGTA
Sequence of CDK2 CCNA2 (human) (P20248 whole entry, looked up, other chains not shown): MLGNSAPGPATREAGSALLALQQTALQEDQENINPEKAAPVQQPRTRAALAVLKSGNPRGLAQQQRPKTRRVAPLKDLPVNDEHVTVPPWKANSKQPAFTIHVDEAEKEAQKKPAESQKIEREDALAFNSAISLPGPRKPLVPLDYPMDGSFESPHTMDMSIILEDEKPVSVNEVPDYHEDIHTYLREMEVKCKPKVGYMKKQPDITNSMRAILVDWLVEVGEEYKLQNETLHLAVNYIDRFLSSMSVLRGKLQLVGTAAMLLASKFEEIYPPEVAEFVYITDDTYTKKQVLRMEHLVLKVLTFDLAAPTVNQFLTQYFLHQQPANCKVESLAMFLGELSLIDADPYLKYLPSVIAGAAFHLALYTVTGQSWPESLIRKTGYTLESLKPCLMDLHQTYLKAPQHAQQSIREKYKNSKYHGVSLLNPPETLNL
Sequence of STK16 (human) (O75716 whole entry, looked up): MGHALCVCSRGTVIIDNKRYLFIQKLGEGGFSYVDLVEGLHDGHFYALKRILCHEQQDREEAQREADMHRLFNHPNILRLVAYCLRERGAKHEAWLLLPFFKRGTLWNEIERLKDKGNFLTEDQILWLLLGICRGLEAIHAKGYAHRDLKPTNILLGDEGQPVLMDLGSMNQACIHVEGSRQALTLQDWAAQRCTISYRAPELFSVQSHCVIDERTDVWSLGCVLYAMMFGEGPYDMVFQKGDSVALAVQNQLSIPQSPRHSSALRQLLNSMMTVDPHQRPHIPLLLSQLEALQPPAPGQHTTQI
Sequence of ROCK2 (human) (O75116 whole entry, looked up): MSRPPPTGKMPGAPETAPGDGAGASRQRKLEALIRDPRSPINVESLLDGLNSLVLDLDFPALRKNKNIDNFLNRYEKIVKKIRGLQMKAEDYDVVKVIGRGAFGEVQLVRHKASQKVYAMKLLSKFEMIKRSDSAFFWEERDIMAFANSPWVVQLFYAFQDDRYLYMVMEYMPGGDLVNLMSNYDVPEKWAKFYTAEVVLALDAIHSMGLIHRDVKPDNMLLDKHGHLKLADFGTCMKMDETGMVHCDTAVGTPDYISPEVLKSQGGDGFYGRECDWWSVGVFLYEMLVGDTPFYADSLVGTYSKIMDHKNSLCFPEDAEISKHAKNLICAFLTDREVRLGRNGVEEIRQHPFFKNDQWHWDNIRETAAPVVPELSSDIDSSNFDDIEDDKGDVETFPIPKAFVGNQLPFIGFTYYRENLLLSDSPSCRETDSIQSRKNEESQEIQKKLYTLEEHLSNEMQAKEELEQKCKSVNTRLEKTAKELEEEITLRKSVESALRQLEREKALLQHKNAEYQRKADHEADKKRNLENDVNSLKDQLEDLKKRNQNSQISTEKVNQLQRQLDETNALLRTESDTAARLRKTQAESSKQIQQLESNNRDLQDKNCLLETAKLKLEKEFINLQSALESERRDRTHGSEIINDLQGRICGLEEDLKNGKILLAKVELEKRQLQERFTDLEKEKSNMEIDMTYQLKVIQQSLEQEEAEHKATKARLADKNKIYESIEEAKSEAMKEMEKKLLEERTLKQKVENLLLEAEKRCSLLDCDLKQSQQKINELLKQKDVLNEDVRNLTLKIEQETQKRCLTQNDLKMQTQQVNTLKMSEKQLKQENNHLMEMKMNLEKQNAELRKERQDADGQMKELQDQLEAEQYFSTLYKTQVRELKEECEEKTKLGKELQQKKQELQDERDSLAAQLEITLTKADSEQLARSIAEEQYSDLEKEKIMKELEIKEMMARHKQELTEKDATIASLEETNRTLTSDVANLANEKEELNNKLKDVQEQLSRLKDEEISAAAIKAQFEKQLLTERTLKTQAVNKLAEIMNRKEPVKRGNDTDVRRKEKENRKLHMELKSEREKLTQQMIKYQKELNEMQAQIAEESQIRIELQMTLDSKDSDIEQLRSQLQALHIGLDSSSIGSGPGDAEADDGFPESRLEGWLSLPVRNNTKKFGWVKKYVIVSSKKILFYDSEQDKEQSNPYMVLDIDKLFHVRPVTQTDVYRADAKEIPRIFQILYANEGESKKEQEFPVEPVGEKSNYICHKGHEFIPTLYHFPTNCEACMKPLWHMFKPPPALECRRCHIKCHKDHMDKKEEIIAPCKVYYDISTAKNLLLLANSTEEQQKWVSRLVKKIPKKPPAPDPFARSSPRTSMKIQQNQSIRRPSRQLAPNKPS
Sequence of TTK (human) (P33981 whole entry, looked up): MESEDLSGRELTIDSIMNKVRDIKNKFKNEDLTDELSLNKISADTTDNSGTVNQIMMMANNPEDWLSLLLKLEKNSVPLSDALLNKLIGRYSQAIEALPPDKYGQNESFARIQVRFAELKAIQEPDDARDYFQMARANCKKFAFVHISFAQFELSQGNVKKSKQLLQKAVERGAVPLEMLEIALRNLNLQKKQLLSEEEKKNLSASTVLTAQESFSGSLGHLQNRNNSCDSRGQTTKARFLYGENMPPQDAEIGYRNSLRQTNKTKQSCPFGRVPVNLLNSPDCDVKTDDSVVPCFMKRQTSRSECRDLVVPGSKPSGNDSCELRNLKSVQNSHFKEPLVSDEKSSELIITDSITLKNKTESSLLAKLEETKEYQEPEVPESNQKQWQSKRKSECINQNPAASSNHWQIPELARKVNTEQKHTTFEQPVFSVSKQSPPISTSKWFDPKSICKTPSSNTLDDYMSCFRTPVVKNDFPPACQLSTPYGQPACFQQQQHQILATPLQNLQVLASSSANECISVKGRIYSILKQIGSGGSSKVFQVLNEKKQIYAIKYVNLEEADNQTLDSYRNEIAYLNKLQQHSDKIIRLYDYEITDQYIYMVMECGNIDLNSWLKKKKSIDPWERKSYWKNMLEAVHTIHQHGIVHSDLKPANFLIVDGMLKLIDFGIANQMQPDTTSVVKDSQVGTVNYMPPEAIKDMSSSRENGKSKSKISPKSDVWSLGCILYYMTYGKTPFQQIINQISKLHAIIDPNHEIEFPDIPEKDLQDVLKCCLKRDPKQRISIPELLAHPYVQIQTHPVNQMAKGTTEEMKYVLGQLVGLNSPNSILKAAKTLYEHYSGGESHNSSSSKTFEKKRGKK
Sequence of PRKCB1 (human) (P05771 whole entry, looked up): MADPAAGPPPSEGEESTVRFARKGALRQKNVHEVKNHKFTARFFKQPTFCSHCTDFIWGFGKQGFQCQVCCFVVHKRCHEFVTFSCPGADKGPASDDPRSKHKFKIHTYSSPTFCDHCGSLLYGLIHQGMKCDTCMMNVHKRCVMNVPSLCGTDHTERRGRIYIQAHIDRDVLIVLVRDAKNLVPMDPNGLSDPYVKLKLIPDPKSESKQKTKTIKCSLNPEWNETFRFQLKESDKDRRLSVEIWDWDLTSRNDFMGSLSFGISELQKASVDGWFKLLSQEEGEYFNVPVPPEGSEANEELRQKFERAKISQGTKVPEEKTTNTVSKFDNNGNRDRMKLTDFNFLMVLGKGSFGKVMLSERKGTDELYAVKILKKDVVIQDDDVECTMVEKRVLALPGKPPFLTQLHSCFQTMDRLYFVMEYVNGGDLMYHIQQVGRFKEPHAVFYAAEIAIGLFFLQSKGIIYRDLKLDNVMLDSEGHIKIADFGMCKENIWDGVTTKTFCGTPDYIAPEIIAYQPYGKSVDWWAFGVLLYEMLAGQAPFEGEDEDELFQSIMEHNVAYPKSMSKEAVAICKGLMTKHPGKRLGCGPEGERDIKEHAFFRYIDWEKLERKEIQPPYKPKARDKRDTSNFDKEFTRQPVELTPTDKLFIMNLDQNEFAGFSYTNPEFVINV

CC(C)Nc1c(C#N)cnc2cc(-c3ccc(S(C)(=O)=O)cc3)ccc12
inhibition (MAPK10 (human); compound 1.0 µM): -11.1% | inhibition (PTK2B (human); compound 1.0 µM): 33.5% | inhibition (ROCK2 (human); compound 1.0 µM): 11.8% | inhibition (PRKCB1 (human); compound 1.0 µM): 19.4% | inhibition (STK16 (human); compound 1.0 µM): 3.38% | inhibition (IRAK4 (human); compound 1.0 µM): 29.4% | inhibition (MAP3K7 TAB1 (human); compound 1.0 µM): 7.1% | inhibition (PIK3CA PIK3R1 (human); compound 1.0 µM): -1.66% | inhibition (PLK3 (human); compound 1.0 µM): 13.5% | inhibition (PDGFRA (human); compound 1.0 µM): 33.4% | inhibition (FLT3 (human); compound 1.0 µM): 15.5% | inhibition (GSK3B (human); compound 1.0 µM): 27.6% | inhibition (RAF1 (human); compound 1.0 µM): 3.26% | inhibition (MAPK1 (human); compound 1.0 µM): 9.79% | inhibition (AKT1 (human); compound 1.0 µM): 9.66% | inhibition (LCK (human); compound 1.0 µM): 25.5% | inhibition (JAK1 JH1 JH2 (human); compound 1.0 µM): 16.5% | inhibition (CDK2 CCNA2 (human); compound 1.0 µM): 11.7% | inhibition (TTK (human); compound 1.0 µM): -3.76%

C[C@@H](Nc1c(C#N)cnc2cc(-c3ccc(N4CCOC4=O)cc3)ccc12)C1CC1
IC50 [1]: 0.027 µM | IC50 (LRRK2 (human) [2]): 0.048 µM | inhibition (MAPK10 (human); compound 10.0 µM): -17.1% | inhibition (PLK1 (human); compound 10.0 µM): 8.21% | inhibition (PTK2B (human); compound 10.0 µM): 15.9% | inhibition (STK3 (human); compound 10.0 µM): 18.1% | inhibition (ABL1 (human)): 29.9% | inhibition (CHEK1 (human)): 30.7% | inhibition (ROCK2 (human); compound 10.0 µM): 16.4% | inhibition (PLK2 (human)): 53.7% | inhibition (PRKCB1 (human); compound 10.0 µM): -1.79% | inhibition (DYRK1B (human)): 23.7% | inhibition (MARK2 (human)): 40.2% | inhibition (STK16 (human); compound 10.0 µM): -24.1% | inhibition (IRAK4 (human); compound 10.0 µM): 9.89% | inhibition (MAP3K7 TAB1 (human); compound 10.0 µM): -5.32% | inhibition (PIK3CA PIK3R1 (human); compound 10.0 µM): 13.5% | inhibition (CLK1 (human)): 6.88% | inhibition (ERBB4 (human); compound 10.0 µM): 6.95% | inhibition (SYK (human)): 71% | inhibition (PLK3 (human); compound 10.0 µM): 5.89% | inhibition (PDGFRA (human); compound 10.0 µM): 4.67% | inhibition (FLT3 (human); compound 10.0 µM): 44.5% | inhibition (GSK3B (human); compound 10.0 µM): 0.682% | inhibition (PRKACA (human)): -2.65% | inhibition (RAF1 (human); compound 10.0 µM): 5.94% | inhibition (CAMK2A (human); compound 10.0 µM): 29.7% | inhibition (MAPK1 (human); compound 10.0 µM): -1.85% | inhibition (INSR (human); compound 10.0 µM): 0.146% | inhibition (CDK1 CCNB1 (human)): 11.7% | inhibition (AKT1 (human); compound 10.0 µM): -1.71% | inhibition (CSF1R (human)): 39.5% | inhibition (LCK (human); compound 10.0 µM): 18.4% | inhibition (LRRK2 (human) [3]): 81.3% | inhibition (AURKA (human)): 66.7% | inhibition (JAK1 JH1 JH2 (human); compound 10.0 µM): 4.09% | inhibition (CDK5 CDK5R1 p25 (human); compound 10.0 µM): 5.49% | inhibition (CDK2 CCNA2 (human); compound 10.0 µM): 0.295% | inhibition (TTK (human); compound 10.0 µM): 11.2% | inhibition (RET (human)): 11.8% | inhibition (PAK4 (human)): 19.3% | inhibition (RIPK2 (human)): 55.8%

CC(C)Nc1c(C#N)cnc2cc(-c3cnn(C)c3)ccc12
IC50 [1]: 0.05 µM | IC50 (LRRK2 (human) [2]): 0.07 µM | inhibition (MAPK10 (human); compound 1.0 µM): 4.47% | inhibition (PLK1 (human); compound 1.0 µM): 23.6% | inhibition (PTK2B (human); compound 1.0 µM): 12.2% | inhibition (STK3 (human); compound 1.0 µM): 15.4% | inhibition (ROCK2 (human); compound 1.0 µM): 14.2% | inhibition (PRKCB1 (human); compound 1.0 µM): -7.3% | inhibition (STK16 (human); compound 1.0 µM): 10.1% | inhibition (ERBB4 (human); compound 1.0 µM): 4.52% | inhibition (PLK3 (human); compound 1.0 µM): 11.5% | inhibition (RAF1 (human); compound 1.0 µM): 12.4% | inhibition (CAMK2A (human); compound 1.0 µM): 27.5% | inhibition (MAPK1 (human); compound 1.0 µM): -2.05% | inhibition (INSR (human); compound 1.0 µM): 1.29% | inhibition (AKT1 (human); compound 1.0 µM): -0.488% | inhibition (JAK1 JH1 JH2 (human); compound 1.0 µM): 2.9% | inhibition (CDK5 CDK5R1 p25 (human); compound 1.0 µM): 12.4% | inhibition (CDK2 CCNA2 (human); compound 1.0 µM): 5.33% | inhibition (TTK (human); compound 1.0 µM): -8.51%
